Active and inactive are the calls of the source.
What was measured:
[1] = Luminescent dose response cell-based high throughput screening assay for inhibitors of the Janus kinase 2 mutant JAK2V617F. [Related pubchem assays: 1446 (Primary screen.), 1521 (Confirmation assay.), 1486 (Counter screen.)]; format: functional
[2] = NIH-3T3 fibroblast cytotoxicity, dose response, cytotoxicity control, cell-based, fluorescence, Alamar Blue, secondary assay (AID 2327); format: functional;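 note: NIH-3T3 mouse fibroblasts cultured with fluconazole at 8 µg/mL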
[3] = target: Peroxisome proliferator-activated receptor gamma/Nuclear receptor coactivator 1 (Homo sapiens, UniProt P37231); test: (§1) TR-FRET dose response biochemical High Throughput Screening assay for agonists of the steroid receptor coactivator 1 (SRC-1) recruitment by the peroxisome proliferator-activated receptor gamma (PPAR gamma): non-selective agonists. [Related pubchem assays (depositor defined):AID1300, AID1808, AID504735, AID631]; format: protein assay
Chain of Peroxisome proliferator-activated receptor gamma/Nuclear receptor coactivator 1 (P37231 whole entry): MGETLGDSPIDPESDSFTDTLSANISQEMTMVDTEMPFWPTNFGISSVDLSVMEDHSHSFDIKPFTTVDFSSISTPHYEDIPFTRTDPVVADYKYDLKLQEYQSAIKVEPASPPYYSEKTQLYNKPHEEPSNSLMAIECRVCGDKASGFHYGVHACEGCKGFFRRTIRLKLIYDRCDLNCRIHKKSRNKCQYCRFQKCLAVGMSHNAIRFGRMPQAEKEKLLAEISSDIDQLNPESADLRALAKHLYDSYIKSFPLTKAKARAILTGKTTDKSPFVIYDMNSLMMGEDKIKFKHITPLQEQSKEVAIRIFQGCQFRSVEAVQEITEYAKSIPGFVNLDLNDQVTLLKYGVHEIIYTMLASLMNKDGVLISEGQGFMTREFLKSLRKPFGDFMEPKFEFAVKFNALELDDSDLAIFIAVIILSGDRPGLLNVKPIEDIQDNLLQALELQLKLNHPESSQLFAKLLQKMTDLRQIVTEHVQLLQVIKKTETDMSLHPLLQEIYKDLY
Chain of Peroxisome proliferator-activated receptor gamma/Nuclear receptor coactivator 1 (Q15788 whole entry, further chain): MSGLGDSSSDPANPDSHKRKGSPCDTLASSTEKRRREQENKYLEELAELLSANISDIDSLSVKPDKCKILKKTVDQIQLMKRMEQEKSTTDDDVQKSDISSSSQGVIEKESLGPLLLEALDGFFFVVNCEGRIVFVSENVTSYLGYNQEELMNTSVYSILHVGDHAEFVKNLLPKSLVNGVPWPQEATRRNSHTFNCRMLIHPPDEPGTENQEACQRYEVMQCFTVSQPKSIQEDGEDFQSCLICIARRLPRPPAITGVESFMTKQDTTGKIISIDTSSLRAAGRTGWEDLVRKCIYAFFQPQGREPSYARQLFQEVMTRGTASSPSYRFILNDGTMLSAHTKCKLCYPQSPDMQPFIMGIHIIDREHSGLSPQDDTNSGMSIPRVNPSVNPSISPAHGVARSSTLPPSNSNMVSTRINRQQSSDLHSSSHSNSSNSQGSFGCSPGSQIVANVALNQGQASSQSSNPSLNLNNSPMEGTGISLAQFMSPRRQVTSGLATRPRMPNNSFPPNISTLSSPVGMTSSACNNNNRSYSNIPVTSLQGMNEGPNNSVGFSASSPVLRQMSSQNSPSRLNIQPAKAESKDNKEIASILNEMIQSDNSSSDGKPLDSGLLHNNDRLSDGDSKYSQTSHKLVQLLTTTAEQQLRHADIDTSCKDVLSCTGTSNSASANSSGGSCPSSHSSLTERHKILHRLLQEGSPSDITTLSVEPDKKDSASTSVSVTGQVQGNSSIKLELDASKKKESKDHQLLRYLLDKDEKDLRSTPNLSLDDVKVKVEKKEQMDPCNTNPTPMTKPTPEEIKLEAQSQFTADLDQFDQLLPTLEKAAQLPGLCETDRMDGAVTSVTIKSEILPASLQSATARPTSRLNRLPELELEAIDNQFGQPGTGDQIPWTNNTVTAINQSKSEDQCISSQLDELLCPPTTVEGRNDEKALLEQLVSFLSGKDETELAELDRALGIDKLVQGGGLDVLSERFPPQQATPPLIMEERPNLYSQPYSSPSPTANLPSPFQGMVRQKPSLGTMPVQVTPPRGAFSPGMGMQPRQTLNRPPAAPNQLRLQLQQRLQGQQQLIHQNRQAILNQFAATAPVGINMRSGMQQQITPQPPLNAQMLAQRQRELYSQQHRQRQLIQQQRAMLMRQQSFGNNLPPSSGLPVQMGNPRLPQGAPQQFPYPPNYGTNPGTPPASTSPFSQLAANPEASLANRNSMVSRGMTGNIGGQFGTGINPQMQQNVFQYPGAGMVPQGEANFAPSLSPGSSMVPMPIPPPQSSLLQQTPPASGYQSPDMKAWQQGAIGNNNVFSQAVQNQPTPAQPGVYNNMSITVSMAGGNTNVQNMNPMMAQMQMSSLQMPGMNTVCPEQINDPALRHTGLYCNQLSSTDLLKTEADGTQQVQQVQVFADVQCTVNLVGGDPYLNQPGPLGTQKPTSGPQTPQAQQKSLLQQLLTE

[4] = target: Peroxisome proliferator-activated receptor gamma/Nuclear receptor coactivator 3 (Homo sapiens, UniProt P37231); test: as §1, with “3 (SRC-3)” for “1 (SRC-1)”, “assays: 1301 (Confirmation screen.), 1048 (Primary screen.)]” for “assays (depositor defined):AID1300, AID1808, AID504735, AID631]”; format: functional
Chain of Peroxisome proliferator-activated receptor gamma/Nuclear receptor coactivator 3 (P37231 whole entry): as the sequence (P37231 whole entry) above
Chain of Peroxisome proliferator-activated receptor gamma/Nuclear receptor coactivator 3 (Q9Y6Q9 whole entry, further chain): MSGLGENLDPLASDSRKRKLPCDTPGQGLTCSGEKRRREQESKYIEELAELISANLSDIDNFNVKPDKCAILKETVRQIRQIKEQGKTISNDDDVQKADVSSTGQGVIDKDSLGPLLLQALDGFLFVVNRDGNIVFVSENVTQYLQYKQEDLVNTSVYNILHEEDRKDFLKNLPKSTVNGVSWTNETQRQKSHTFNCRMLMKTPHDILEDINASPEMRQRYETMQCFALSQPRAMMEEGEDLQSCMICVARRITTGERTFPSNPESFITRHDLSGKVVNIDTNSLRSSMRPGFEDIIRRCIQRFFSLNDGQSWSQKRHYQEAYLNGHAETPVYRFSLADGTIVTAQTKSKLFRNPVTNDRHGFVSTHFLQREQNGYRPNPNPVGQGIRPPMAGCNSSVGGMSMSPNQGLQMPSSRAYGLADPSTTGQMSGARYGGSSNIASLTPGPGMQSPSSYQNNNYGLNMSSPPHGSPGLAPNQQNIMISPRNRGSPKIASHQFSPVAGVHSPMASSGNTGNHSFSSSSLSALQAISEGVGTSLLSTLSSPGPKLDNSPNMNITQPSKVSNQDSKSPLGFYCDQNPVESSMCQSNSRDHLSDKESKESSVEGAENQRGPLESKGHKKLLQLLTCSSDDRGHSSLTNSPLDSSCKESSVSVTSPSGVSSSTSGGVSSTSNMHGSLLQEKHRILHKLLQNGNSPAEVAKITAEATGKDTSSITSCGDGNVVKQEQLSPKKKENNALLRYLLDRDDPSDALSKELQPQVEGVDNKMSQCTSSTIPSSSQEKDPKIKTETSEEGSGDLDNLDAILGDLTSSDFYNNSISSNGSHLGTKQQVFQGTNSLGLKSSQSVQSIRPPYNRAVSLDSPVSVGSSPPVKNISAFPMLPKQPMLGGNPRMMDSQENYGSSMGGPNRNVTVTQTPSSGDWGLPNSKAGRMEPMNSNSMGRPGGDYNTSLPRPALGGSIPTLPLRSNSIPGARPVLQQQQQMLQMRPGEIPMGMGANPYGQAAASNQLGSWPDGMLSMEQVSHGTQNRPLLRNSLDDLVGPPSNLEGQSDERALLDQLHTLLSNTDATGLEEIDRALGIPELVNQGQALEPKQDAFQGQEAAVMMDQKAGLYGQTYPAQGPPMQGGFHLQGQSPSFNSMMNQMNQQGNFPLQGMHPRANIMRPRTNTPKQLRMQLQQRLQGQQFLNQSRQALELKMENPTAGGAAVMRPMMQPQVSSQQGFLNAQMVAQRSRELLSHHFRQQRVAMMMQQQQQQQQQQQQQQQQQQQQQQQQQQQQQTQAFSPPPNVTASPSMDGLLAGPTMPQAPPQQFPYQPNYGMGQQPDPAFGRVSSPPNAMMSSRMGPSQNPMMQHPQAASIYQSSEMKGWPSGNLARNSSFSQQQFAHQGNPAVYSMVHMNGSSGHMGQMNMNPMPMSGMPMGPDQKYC

[5] = fluconazole-exposed Candida albicans growth modulators – fluorescence, retest, confirmation (AID 2467); format: functional, cell-based
[6] = viability of PTEN-deleted HCT116 cells – cell-based, HCT116 PTEN knockout, dose response (AID 1047); format: functional;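 note: HCT116 colon tumor cells with PTEN knocked out; cells exposed to compound for 60 hours before readout; potency for loss of cell viability measured by luminescence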
[7] = target: T1, Serine/threonine-protein phosphatase (Candida dubliniensis (strain CD36 / CBS 7987 / NCPF 3949 / NRRLY-17841) (Yeast), UniProt B9W6M3); test: blockers of CaCl2-induced CDRE-lacZ signaling – S. cerevisiae, luminescence, secondary, dose response (AID 2388); format: functional, cell-based;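 note: yeast reporter cells carrying a calcineurin-responsive lacZ construct stimulated with calcium chloride; luminescent beta-galactosidase reporter signal in whole cells rather than isolated phosphatase activity; potency for inhibition where a drop in reporter signal means calcineurin blockade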
T1 sequence (B9W6M3 whole entry): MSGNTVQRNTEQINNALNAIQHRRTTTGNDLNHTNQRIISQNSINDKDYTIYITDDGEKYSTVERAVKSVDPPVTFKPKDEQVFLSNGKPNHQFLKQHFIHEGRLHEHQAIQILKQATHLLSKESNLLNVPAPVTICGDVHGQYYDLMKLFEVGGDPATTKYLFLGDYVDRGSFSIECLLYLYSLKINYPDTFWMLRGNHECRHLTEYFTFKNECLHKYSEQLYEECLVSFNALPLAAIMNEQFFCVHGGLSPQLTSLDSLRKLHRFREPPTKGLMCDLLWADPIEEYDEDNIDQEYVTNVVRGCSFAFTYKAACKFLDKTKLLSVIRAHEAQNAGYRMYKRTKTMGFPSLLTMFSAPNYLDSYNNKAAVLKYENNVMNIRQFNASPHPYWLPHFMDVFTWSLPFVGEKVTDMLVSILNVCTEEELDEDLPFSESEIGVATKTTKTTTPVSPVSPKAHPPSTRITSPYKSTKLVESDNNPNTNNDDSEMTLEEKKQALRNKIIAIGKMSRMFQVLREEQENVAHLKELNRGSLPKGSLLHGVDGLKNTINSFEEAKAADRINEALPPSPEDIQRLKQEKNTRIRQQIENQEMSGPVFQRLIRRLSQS

[8] = target: Peroxisome proliferator-activated receptor gamma/Nuclear receptor coactivator 2 (Homo sapiens, UniProt P37231); test: TR-FRET dose response biochemical High Throughput Screening assay for agonists of the steroid receptor coactivator 2 (SRC-2) recruitment by the peroxisome proliferator-activated receptor gamma (PPAR gamma): non-selective agonists. [Related pubchem assays: 1297, 1032 ]; format: functional
[9] = viability of HCT116 lacking mutant beta-catenin – cell-based, human colon tumor, dose response (AID 1045); format: functional;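 note: HCT116 colon tumor cells with beta catenin knocked out; cells exposed to compound for 60 hours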
[10] = target: T2, Mannose-6-phosphate isomerase (Homo sapiens, UniProt P34949); test: MPI inhibition at elevated mannose 6-phosphate – biochemical, fluorescence intensity, high mannose 6-phosphate, primary screen (AID 1220)
T2 sequence (P34949 whole entry): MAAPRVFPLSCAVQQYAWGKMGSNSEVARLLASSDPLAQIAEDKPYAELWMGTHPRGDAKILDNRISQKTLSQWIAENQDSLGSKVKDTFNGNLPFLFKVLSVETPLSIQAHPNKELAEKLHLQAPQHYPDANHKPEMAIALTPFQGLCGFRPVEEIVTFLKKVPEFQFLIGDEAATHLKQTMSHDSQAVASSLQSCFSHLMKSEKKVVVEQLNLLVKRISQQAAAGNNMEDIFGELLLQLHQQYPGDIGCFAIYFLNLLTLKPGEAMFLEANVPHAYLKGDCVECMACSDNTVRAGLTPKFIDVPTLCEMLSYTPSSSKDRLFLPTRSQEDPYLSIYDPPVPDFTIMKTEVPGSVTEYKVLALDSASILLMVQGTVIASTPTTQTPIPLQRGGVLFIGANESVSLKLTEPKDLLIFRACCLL

[11] = target: T3, Replicative DNA helicase DnaB (Mycobacterium tuberculosis, UniProt P9WMR3); test: DnaB intein splicing inhibitors, dose response, biochemical, cell-free fluorescence (AID 449749); format: functional
T3 sequence (P9WMR3 whole entry): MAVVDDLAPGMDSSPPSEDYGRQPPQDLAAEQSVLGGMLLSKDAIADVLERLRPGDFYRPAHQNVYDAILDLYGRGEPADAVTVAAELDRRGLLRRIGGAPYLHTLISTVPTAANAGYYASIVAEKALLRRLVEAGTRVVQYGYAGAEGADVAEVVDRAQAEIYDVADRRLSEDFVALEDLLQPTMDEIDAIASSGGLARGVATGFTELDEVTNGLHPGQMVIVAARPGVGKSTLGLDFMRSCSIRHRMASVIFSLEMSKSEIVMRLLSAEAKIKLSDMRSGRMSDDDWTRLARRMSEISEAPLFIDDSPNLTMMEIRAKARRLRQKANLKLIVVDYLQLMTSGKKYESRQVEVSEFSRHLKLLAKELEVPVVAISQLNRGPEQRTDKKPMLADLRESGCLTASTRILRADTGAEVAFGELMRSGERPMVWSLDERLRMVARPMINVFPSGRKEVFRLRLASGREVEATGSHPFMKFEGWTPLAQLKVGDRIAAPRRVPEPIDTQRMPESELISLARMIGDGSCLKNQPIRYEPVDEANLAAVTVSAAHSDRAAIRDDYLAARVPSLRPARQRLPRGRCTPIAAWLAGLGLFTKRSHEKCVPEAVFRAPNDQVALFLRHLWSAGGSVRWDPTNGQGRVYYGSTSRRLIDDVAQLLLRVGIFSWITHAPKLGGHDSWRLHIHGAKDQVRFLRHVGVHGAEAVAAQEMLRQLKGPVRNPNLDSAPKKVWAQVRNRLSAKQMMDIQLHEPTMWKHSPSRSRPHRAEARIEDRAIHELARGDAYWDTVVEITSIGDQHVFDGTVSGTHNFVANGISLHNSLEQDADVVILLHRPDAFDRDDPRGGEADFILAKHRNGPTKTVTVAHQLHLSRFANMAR

Vero = test: viability of Vero cells under compound – cytotoxicity control for flavivirus capping enzyme inhibitors (AID 588742); format: functional; details: Chlorocebus sabaeus
Protein RecA = target: T4, Protein RecA (Mycobacterium tuberculosis, UniProt P9WHJ3); test: Fluorescence Cell-Free Homogeneous Dose Retest to Identify Inhibitors of RecA-Intein Splicing Activity. [Related pubchem assays (depositor defined):AID2097, AID2223, AID489010, AID492950]; format: functional
T4 sequence (P9WHJ3 whole entry): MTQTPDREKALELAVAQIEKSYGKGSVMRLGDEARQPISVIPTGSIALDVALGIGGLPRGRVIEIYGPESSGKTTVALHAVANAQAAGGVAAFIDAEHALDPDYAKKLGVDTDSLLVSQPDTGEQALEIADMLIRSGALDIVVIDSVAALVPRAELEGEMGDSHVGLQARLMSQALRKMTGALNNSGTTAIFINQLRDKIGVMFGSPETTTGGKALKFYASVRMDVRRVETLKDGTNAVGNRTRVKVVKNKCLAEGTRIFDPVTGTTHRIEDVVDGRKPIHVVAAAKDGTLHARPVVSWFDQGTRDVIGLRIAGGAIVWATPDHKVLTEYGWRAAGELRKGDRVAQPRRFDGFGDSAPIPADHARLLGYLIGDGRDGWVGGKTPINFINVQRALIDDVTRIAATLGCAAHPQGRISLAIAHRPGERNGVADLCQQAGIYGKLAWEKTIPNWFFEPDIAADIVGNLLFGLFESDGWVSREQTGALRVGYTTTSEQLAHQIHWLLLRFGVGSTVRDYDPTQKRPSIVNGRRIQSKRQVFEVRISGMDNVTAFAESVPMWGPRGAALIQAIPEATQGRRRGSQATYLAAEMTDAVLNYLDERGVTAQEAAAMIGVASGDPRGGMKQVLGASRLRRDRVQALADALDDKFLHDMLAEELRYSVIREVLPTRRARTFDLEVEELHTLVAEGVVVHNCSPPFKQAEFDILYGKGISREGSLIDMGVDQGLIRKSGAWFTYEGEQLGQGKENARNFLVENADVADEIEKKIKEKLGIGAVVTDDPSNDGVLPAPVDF

INS1 = test: INS-1E survival protection against cytokine death – cell-based, luminescence, retest, dose response (AID 449756); format: functional; details: Rattus norvegicus;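 note: cell death triggered by IL-1 beta plus TNF-alpha plus IFN-gamma mixture; protective hits raise ATP signal compared with cytokine alone wells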
[12] = target: ATP-dependent molecular chaperone HSP82 (Candida albicans (strain WO-1) (Yeast), UniProt C4YTQ8); test: steroid-induced GRE reporter decrease in yeast – S. cerevisiae, luminescence, Hsp90 inhibitor project, dose response (AID 2400); format: functional, cell-based;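 note: beta-galactosidase luminescence from glucocorticoid response element reporter as proxy for Hsp90 function; inhibitor potency where signal loss means Hsp90 inhibition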
Chain of ATP-dependent molecular chaperone HSP82 (C4YTQ8 whole entry): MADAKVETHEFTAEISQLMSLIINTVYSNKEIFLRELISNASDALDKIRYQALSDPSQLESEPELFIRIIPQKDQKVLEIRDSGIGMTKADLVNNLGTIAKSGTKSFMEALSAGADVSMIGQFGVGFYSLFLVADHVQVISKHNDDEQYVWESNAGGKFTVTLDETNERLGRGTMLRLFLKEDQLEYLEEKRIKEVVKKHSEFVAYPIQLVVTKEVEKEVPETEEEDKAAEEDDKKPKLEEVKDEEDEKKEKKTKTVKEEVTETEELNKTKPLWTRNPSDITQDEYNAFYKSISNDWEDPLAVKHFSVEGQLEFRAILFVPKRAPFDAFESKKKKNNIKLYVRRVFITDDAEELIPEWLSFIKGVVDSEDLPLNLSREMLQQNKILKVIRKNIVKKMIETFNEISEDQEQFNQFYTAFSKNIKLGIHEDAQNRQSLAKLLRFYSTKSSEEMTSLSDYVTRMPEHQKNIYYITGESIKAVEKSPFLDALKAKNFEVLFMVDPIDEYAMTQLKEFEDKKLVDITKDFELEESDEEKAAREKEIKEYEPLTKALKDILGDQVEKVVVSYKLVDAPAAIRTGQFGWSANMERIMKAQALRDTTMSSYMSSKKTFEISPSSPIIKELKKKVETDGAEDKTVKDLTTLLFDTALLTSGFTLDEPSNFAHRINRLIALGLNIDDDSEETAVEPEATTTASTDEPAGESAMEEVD

DNA topoisomerase = DNA topoisomerase (Yersinia pestis, UniProt A0A2S9PM60); test: Yersinia topoisomerase I cleavage product accumulation – biochemical, cherry-pick, dose response (AID 588525)

In the case of `[O-][N+]1=c2ccc(Nc3ccccc3)cc2=NC12CCCCC2`, the IC50 [1] was 0.637 µM (active), the EC50 [2] was 146 µM (active) and the EC50 [3] was 14.9 µM (inactive). The EC50 [4] was > 79.4 µM (not active), the EC50 [5] was 1.46 µM (active) and the EC50 [6] was 1.9 µM (active). For the same compound, the EC50 [7] was > 180 µM (inactive), the EC50 [8] was 14.4 µM (not active) and the EC50 [9] was 1.62 µM (active). For the same compound, the IC50 [10] was 48.2 µM (active), the AC50 [11] was > 380 µM (inactive) and the CC50 (Vero) was 18.6 µM (active). For the same compound, the EC50 (Protein RecA) was 4.37 µM (active), the AC50 (INS1) was 5.64 µM (active) and the EC50 [12] was > 150 µM (inactive).

With `Cc1cc(OCCn2nc(C(=O)O)c3ccccc3c2=O)ccc1C(C)C` the AC50 (DNA topoisomerase) was 3.68 µM (active).

From ChEMBL document CHEMBL1201862, “PubChem BioAssay data set” (2004)
